Tests used:
LLC cells = assay: LDH release cytotoxicity assay against LLC cells; conditions: Mdivi-1 10 μM, 10:1
Method: Cytotoxicity assay. Lung IMs from the PBS vs WGP-trained mice were sorted and co-cultured with LLC cells at different ratios in a 96-well plate. The plates were then incubated at 37° C. with 5% CO2 for 12-16 h. Upon completion of incubation, the supernatants were harvested and assayed for the release of lactate dehydrogenase as per the instructions described in the CyQUANT™ LDH Cytotoxicity Assay Kit (Invitrogen). For the cytotoxicity assay in the presence of Mdivi-1 (10 μM) (Sigma Aldrich), peritoneal macrophages were in vitro trained with PBS or WGP in the presence of Mdivi-1 or DMSO for 6 days. The macrophages were then harvested, counted, and co-cultured with LLC cells at a ratio of 10:1 followed by the lactate dehydrogenase assay for cytotoxicity. In another set of experiments, IMs from the lungs of PBS vs WGP-trained mice were harvested, sorted, and co-cultured with LLC cells (10:1) in the presence of N-acetyl-L-Cysteine (NAC, 1 mM) (Sigma Aldrich) or DMSO and assayed for cytotoxicity.

peritoneal macrophages = assay: Mitochondrial ROS quantitation (MitoSox Red); type: cell-based, mice; conditions: Mdivi-1 50 μM and 75 μM
Method: Mitochondrial ROS quantitation. Peritoneal macrophages were treated with WGP or S1P in the presence or absence of Mdivi-1 and incubated at 37° C. with 5% CO2 for 24 h. The cells were then harvested, washed with PBS and pelleted by centrifugation at 1600 rpm for 5 min at room temperature. The pellets were then stained with MitoSOX Red dye (5 μM) (Invitrogen) at 37° C. for 15 min. The cells were washed with pre-warmed HBSS followed by another wash with PBS at room temperature. The cells were then stained with viability dye and anti-F4/80 and then acquired by flow cytometry. Flow cytometry for p-Drp-1. Peritoneal macrophages were treated with WGP (25 μg/ml) or S1P (1 μM) and incubated at 37° C. with 5% CO2 for 3-4 h. Following the completion of incubation, the cells were quickly washed with cold PBS to stop the activation. The cells were harvested and washed with PBS. The cells were then fixed with 4% formaldehyde for 15 min at room temperature, washed with PBS and permeabilized using ice-cold 100% methanol on ice for a minimum of 10 min. The cells were then stained with primary antibody (p-Drp1) (Cell Signaling) for 1 hour at room temperature followed by secondary antibody (Anti-rabbit IgG) (Biolegend) for 30 min at room temperature as instructed in the Cell Signaling phospho-stain protocol and analyzed using flow cytometry.

LLC-GFP tumor cells = assay: BMDM training and adoptive transfer, LLC-GFP challenge; type: in vivo, mice; conditions: BMDM trained in presence of Mdivi-1
Description: BMDMs were trained in the presence of Mdivi-1 or DMSO. BMDMs (1×10^6) were then adoptively transferred intravenously to WT mice twice 2 days apart. Two days later recipient mice were challenged with LLC-GFP tumor cells. Mice were euthanized at day 21 post tumor challenge to analyze the tumor burden and T cell phenotype in the lungs.
To examine whether ex vivo beta-glucan trained macrophages could be used for adoptive cell therapy, bone marrow-derived macrophages (BMDM) were used for a proof-of-concept study. To this end, BMDM were trained with WGP beta-glucan for 7 days and then adoptively transferred into naïve mice. Recipient mice were then challenged with LLC-GFP tagged lung cancer cells. Mice were euthanized at day 21 (FIG. 15A).

Compound: COc1cc(-n2c(=S)[nH]c3ccccc3c2=O)c(Cl)cc1Cl [Mdivi-1]
- effect on cytotoxicity of WGP-trained peritoneal macrophages (LLC cells): abrogated WGP-mediated mtROS production (FIG. 14D) and cytotoxicity against tumor cells
- effect on WGP-mediated mtROS production (peritoneal macrophages): abrogated WGP-mediated mtROS production
- effect on WGP-trained BMDM-mediated effect (LLC-GFP tumor cells): completely abrogated WGP-trained BDMD-mediated effect
